Data on three compounds can be found in paper PMC10104807, “Modulation of tau tubulin kinases (TTBK1 and TTBK2) impacts ciliogenesis” (Scientific Reports, 2023).

The IC50 is the concentration at which inhibition is half-maximal.

The subject of series [1] is TTBK1. Also on record: method as in PMID 33944571. The following applies: read-out: TTBK1 IC50 (Biogen biochemical assay); cited from earlier work.
Series [2] has as its system TTBK1. The arrangement: method as in earlier work. The following applies: screened at 1 μM; cited from earlier work.
The next series relates to TTBK2. Also on record: method as in earlier work. The following applies: screened at 1 μM; cited from earlier work.
The next series deals with T1, HASPIN (Homo sapiens, UniProt Q8TF76).
T1 construct: purchased Eurofins (radiometric) / Eurofins DiscoverX scanMAX / Reaction Biology / SignalChem
T1 sequence (Q8TF76 whole entry): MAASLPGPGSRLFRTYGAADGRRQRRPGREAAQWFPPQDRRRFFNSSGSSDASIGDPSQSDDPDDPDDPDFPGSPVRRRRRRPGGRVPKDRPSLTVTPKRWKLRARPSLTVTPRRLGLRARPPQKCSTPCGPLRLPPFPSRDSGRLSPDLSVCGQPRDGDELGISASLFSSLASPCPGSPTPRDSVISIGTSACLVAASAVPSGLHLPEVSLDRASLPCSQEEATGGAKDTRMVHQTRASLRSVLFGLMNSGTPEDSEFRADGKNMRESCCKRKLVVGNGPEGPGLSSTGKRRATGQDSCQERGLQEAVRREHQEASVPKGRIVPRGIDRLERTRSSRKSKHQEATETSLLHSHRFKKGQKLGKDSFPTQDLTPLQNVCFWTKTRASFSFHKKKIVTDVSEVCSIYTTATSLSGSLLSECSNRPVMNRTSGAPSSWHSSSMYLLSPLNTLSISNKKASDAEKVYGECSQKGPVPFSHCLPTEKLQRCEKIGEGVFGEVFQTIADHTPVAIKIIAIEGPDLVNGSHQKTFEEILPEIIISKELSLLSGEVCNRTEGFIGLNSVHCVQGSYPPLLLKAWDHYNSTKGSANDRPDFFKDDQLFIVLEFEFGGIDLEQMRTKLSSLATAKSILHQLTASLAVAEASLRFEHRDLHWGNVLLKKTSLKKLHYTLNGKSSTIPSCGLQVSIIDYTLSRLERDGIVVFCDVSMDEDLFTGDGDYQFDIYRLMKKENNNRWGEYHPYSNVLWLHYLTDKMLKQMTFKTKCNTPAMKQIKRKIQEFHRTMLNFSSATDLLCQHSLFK
In words: DiscoverX scanMAX binding assay. As to conditions: 1 μM. The method, boiled down: (§1)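 Compound was profiled at 1 µM in a binding-format (not enzymatic) kinase panel covering 403 wild-type human kinases. Binding was expressed as percent of control.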

Another series deals with T2, PRKD3 (Homo sapiens, UniProt O94806).
T2 construct: purchased Eurofins (radiometric) / Eurofins DiscoverX scanMAX / Reaction Biology / SignalChem
T2 sequence (O94806 whole entry): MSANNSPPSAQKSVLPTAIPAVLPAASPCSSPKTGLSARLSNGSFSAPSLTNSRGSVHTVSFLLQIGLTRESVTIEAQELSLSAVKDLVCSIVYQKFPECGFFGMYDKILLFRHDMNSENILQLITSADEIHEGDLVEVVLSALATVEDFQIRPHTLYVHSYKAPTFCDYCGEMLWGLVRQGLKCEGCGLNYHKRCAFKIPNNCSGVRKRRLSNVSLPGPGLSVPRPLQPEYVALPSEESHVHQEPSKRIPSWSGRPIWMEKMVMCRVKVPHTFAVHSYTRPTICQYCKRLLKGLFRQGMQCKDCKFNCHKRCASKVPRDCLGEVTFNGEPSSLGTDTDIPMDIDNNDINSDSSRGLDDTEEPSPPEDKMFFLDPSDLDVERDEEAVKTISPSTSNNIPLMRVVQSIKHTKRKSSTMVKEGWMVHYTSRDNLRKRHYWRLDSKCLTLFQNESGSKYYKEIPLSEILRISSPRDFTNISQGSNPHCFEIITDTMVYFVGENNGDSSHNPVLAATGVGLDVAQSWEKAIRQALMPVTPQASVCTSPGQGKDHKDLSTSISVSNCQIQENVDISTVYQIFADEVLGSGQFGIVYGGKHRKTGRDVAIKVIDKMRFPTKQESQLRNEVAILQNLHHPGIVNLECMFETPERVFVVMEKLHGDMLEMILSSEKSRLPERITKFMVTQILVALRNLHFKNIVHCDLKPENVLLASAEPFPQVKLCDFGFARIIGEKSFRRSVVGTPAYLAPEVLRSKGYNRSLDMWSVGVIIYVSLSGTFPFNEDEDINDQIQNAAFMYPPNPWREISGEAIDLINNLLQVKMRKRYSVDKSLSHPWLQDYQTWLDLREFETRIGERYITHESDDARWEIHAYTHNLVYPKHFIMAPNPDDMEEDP
Description: DiscoverX scanMAX binding assay. The following applies: 1 μM. The method, boiled down:
as §1

In series [3] the target is T3, RPS6KA5(Kin.Dom.2-C-terminal) (Homo sapiens, UniProt O75582).
T3 construct: RPS6KA5(Kin.Dom.2-C-terminal); purchased Eurofins (radiometric) / Eurofins DiscoverX scanMAX / Reaction Biology / SignalChem
T3 sequence (O75582 426-687 limits assumed): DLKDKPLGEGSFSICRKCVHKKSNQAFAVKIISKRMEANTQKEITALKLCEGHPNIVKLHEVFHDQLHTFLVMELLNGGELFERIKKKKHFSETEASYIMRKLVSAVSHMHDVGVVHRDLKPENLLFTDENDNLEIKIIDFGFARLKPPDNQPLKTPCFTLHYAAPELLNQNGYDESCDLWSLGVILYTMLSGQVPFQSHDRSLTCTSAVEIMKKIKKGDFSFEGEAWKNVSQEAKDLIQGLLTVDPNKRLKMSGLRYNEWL
Description: DiscoverX scanMAX binding assay. The following applies: 1 μM. In short, it runs like this: as §1

Series [4] in a line: Kinetic solubility (Analiza). In kind it is physicochemical. The following applies: PBS pH 7.4, from 10 mM DMSO stocks. The source says: Calculated solubility values in Table 2 have been corrected for background nitrogen present in the DMSO and media.

On to `CC(C)(O)C#Cc1ccc2[nH]c3c(c2c1)-c1nc(N)ncc1CCC3` [AMG28, reference compound], for which, in the series with TTBK1 [1], the IC50 is […]. Moreover, the TTBK1 activity remaining with TTBK1 [2] is listed as 8%. Moreover, the TTBK2 activity remaining with TTBK2 is given as 12%.

Turning to `CC(C)(O)C#Cc1ccc2[nH]c3c(c2c1)-c1nc(N)ncc1CC3` [Compound 1], the “HASPIN % control at 1000nM” value on HASPIN was 0.3 % control.

Regarding `CC(C)(O)C#Cc1ccc2[nH]cc(-c3ccnc(N)n3)c2c1` [Compound 3], at PRKD3, the “PRKD3 (PKD3) % control at 1000nM / DiscoverX PoC value” is given as 1.3 % control. Moreover, the “RPS6KA5(Kin.Dom.2-C-terminal) % control at 1000nM” value in series [3] is listed as 8.9 % control. Further, the Kinetic solubility in series [4] is listed as 133 µM.
